Test results from US11083197B2, “Herbicidal composition comprising chromone derivatives and a method for weed control” (INVESTIGACIONES BIOLÓGICAS EN AGROQUÍMICOS ROSARIO S.A., priority 2015, dated 2021).
Where two headings read alike, the source gives them in different places.

Experiments:
[1] = tested on: crabgrass (D. sanguinalis) and velvetleaf (A. theophrasti); experiment: Greenhouse postemergence spray, 2.0 kg ai/ha; format: in vivo, Digitaria sanguinalis; Abutilon theophrasti; conditions: for symptoms on leaves after post-emergence spray: 6-8-day-old plants, both weed species
Protocol: Aqueous solutions containing commercial standards of pure compounds of formulas III and IV were prepared and sprayed on crabgrass (D. sanguinalis) and velvetleaf (A. theophrasti). For better dissolution of compounds in water Tween 20 (1% v/v) and acetone (1% v/v) were added to spray solution. For postemergence application 6-8-day-old plants were sprayed, and final rate of compounds was 2.0 kg active ingredient (ai) ha^−1. Plant height and dry weight were measured at 11 days after spray. Results were compared with atrazine at 1.0 kg ai ha^−1.

[2] = tested on: ryegrass (Lolium multiflorum); experiment: Dose-response bioassay with ryegrass; format: in vivo; conditions: 168 h, 7 days
Protocol: A filter paper and 5 lettuce or 10 mg of creeping bentgrass seeds were placed in each well of a 24-well plate. Stock solutions (10×) of test compounds were prepared in acetone. 180 μl of distilled water were added to each well together with 20 μl of stock solution or acetone in solvent control. Final concentration of acetone was 10% v/v. Plates were sealed with Parafilm, and incubated at 26° C. in a growth chamber set at 173 μmol m^−2 s^−1 continuous photosynthetically active radiation. Phytotoxic activity was qualitatively evaluated by visually comparing germination in each well with solvent control at 7 days. A qualitative estimation of phytotoxicity was obtained by using a rating scale of 0 to 5, where 0 was no effect, and 5 was no germination of seeds. This procedure was also used for testing the phytotoxicity of pure compounds on ryegrass. On this experiment 12-well plates were used. 10 seeds were placed per well and final volume was 300 μl in each one. During dose-response bioassays used for IC50 determination, germination percentage and length of plants were measured at 7 days in order to determine the concentration required for 50% germination and growth inhibition (IC50). All experiments were done in triplicate.
Using method described in Example 1, compounds of Formula III and IV above were tested against lettuce and ryegrass.
The percentage of germination and length of plants were determined at 7 days. Data represents means of three replicates±SD. The IC50 values, for both germination and growth inhibition by compounds III and IV on lettuce and ryegrass, were obtained from estimated parameters in the regression curves.
Statistical Analysis. Data from dose-response experiments were analyzed by a log-logistic model^37-38 using the dose-response curve module^39 of R software version 2.2.1.^40 Concentrations required for 50% germination or growth inhibition relative to control (IC50 values) were obtained from estimated parameters in the regression curves. The standard error (SE) of each estimation is provided. Data from phytotoxicity bioassays in the laboratory and greenhouse, ROS and cell death quantifications were analyzed by ANOVA using the InfoStat statistical software version 2015,^41 and Scheffe's test was employed to compare the means at α=0.05.

[3] = tested on: lettuce; experiment: Postemergence bioassay with lettuce in Petri dishes; format: in vivo; conditions: Lactuca sativa, post-emergence, day 6 (4 days after postemergence application), read-out: Average growth inhibition (%) as percentage of control; for inhibition at 500 µM: 0.50 mM; for inhibition at 1000 µM: 1.00 mM; for inhibition at 1500 µM: 1.50 mM
Protocol: Compounds of formula III and IV above were tested at different concentrations in a postemergence bioassay (in Petri dishes) against lettuce. Lettuce seeds were pre-incubated in Petri dishes with a filter paper and water for 2 days. After that, seedlings (15 mm approx.) were moved to a new Petri dish containing 4 mL of an aqueous solution of each compound or commercial herbicide. Plants length was measured at day 6 (4 days after postemergence application of the compounds). The results were compared to those obtained with acetochlor and glyphosate.
Plant length's axis starts in 15 mm because seeds were pre-incubated in water, so all seedlings were around 15 mm long at the beginning of the treatment.

[4] = tested on: lettuce; experiment: Phytotoxic effect on lettuce under different conditions of illumination; format: in vivo, Lactuca sativa; conditions: 1 mM; light versus darkness; 7 days
Protocol: Bioassays were carried out with lettuce in Petri dishes using the commercial standards of each compound. Lettuce seeds were incubated with 4 mL of an aqueous solution of compounds or acetochlor at 1 mM. Lettuce growth was measured at 7 days of incubation.
The results of this test are shown in FIG. 14 where the Left column (diagonal stripes)=Light and the Right column (in black)=Darkness. Acetochlor was included as a reference of pre-emergent herbicide and to get the highest herbicidal effect, all compounds were tested at 1 mM. Data represent means of three replicates±SD. Different letters above the bars indicate significant differences between treatments (p<0.05).

[5] = tested on: cucumber cotyledon disks; experiment: Photosynthetic efficiency (chlorophyll fluorescence, ETR); format: cell-based; conditions: after 24 h of incubation in the light (42 h total)
Protocol: The effects of pure compounds of formulas III and IV were evaluated by chlorophyll fluorescence measurements according to Dayan and Zaccaro.^24 Cucumber cotyledon disks were exposed to different dilutions of each furanochromone (10, 30, 100 and 300 μM). Control tissues were exposed to the same solvent as treated tissues but without the test compounds. The cotyledon disks were incubated in darkness for 18 h before exposure to light for 24 h. Photosynthetic quantum yield and electron transport rate (ETR) were measured. ETR values were expressed as percent of the ETR average values observed in control treatments. A time-course experiment was performed by measuring induced fluorescence of cotyledon disks after treatment at 3 h in darkness (start), after 18 h in darkness, after which the samples were placed in the light, and further measurements were made after 6 and 24 h of light exposure. The results of this experiment are shown in FIG. 16 (A: khellin [compound of formula III] and B: visnagin [compound of formula IV]). Three replicates were performed for each experiment. Bars represent, from left to right in each grouping, start, 18 h dark, 6 h light, and 24 h light.

[6] = tested on: cucumber cotyledon disks; experiment: Electrolyte leakage assay; format: cell-based; conditions: for destabilization of cell membranes, electrolyte leakage / electrolyte leakage versus boiled positive control: 100 and 300 μM; for electrolyte leakage versus boiled positive control: 16 h dark plus 26 h of high light intensity
Protocol: The effects of pure furanochromones, compounds of formulas III and IV (Sigma Aldrich), on membrane stability were studied as described by Dayan and Watson.^23 Cucumber cotyledon disks were exposed to each furanochromone at 100 and 300 μM. Control tissues were exposed to the same solvent as treated tissues but without the compounds. Conductivity measurements were carried out at the beginning of the dark incubation period, a second measurement was made after 16 h, at which time the samples were placed under high light intensity, and final measurements were made after 8 and 26 h of light exposure. Each experiment consisted of three replicates. Maximum conductivity was measured by boiling three samples of each treatment for 20 min. To study if electrolyte leakage caused by compounds of formulas III and IV was light-dependent, two sets of Petri plates were prepared with cucumber cotyledon disks exposed to test compounds and control in both. One set was treated as described before (dark 16 h/light 26 h) while the other one was kept in darkness for 42 h. Conductivity measurements were done at the indicated times.

[7] = read-out: IC50(μM) ± SE to inhibit germination
[8] = read-out: IC50(μM) ± SE to inhibit growth

SMILES | symptoms on leaves after post-emergence spray [1] | IC50 [2, 7] | IC50 [2, 8] | inhibition at 500 µM [3] | inhibition at 1000 µM [3] | inhibition at 1500 µM [3] | light dependence of phytotoxicity or herbicidal activity [4] | reduction of electron transport rate (ETR) ([5]; 100 μM) | reduction of electron transport rate (ETR) ([5]; 300 μM) | destabilization of cell membranes, electrolyte leakage [6] | electrolyte leakage versus boiled positive control [6] | plant size and biomass respect solvent control ([1]; 11 days after spray) | electrolyte leakage ([6]; 100 μM, after 8 h in the light)
COc1c2occc2c(OC)c2c(=O)cc(C)oc12 [Formula III, 4,9-dimethoxy-7-methyl-5H-furo[3,2-g]chromen-5-one] | Necrosis symptoms | 637 ± 112 µM | 244 ± 37 µM | 22% | 85% | 91% | not a light-dependent process | ~35% | ~50% | significant electrolyte leakage | comparable to the positive control |  | 
COc1c2ccoc2cc2oc(C)cc(=O)c12 [Formula IV, 4-methoxy-7-methyl-5H-furo[3,2-g]chromen-5-one] | Necrosis symptoms | 502 ± 115 µM | 214 ± 23 µM | 22% | 85% | 91% | not a light-dependent process | ~35% | ~50% | significant electrolyte leakage | comparable to the positive control | significant reduction of plant size and biomass | caused electrolyte leakage
